One assay deals with T1, human DGKα (Homo sapiens, UniProt P23743).
T1 construct: TVMV protease cleavage site (C); Hexa-His (C); made in house; host or cells: Sf9 insect cells (baculovirus)
The assay is described as follows: In vitro DGK inhibition assay, DGKα liposome (LIPGLO) assay. The format is biochemical. The settings on record: read-out: Enzyme Inhibition DGKalpha IC50. The procedure: (§1) The DGKα and DGKζ reactions were performed using either extruded liposome (DGKα and DGKζ LIPGLO assays) or detergent/lipid micelle substrate (DGKα and DGKζ assays). The reactions were carried out in 50 mM MOPS pH 7.5, 100 mM NaCl, 10 mM MgCl2, 1 μM CaCl2, and 1 mM DTT (assay buffer). The reactions using a detergent/lipid micelle substrate also contained 50 mM octyl B-D-glucopyranoside. The lipid substrate concentrations were 11 mM PS and 1 mM DAG for the detergent/lipid micelle reactions. The lipid substrate concentrations were 2 mM PS, 0.25 mM DAG, and 2.75 mM PC for the extruded liposome reactions (5 mM total lipid). The reactions were carried out in 150 μM ATP The enzyme concentrations for the DGKα and DGKζ were 5 nM
(§2) The compound inhibition studies were carried out as follows: 25 nL (ADPGLO assay) or 50 nL (LIPGLO assay) droplets of each test compound (top concentration 10 mM with 11 point, 3-fold dilution series for each compound) solubilized in DMSO were transferred to wells of a white 1536 well plate (Corning 3725). A 5 mL enzyme/lipid substrate solution at 2× final reaction concentration was prepared by combining 2.5 mL 4× enzyme solution (20 nM DGKα, or DGKζ (prepared as described below) in assay buffer) and 2.5 mL of either 4× liposome or 4× detergent/lipid micelle solution (compositions described below) and incubated at room temperature for 10 minutes. Next, 1 μL 2× enzyme/lipid substrate solution was added to wells containing the test compound and reactions were initiated with the addition of 1 μL 300 uM ATP. The reactions were allowed to proceed for 2 hr (ADPGLO assay) or 1 hr (LIPGLO assay), after which 2 μL Glo Reagent (Promega V9101) was added and incubated for 40 minutes. Next, 4 μL Kinase Detection Reagent was added and incubated for 30 minutes. Luminescence was recorded using an EnVision microplate reader. […] The compounds were evaluated at 11 concentrations to determine IC50.
(§3) The lipid composition was 5 mol % DAG (Avanti 8008110), 40 mol % PS (Avanti 840035P), and 55 mol % PC (Avanti 850457) at a total lipid concentration of 7-8 mg/mL for the liposome solution. The PC, DAG, and PS were dissolved in chloroform, combined, and dried in vacuo to a thin film. The lipids were hydrated to 20 mM in 50 mM MOPS pH 7.5, 100 mM NaCl, 5 mM MgCl2, and were freeze-thawed five times. The lipid suspension was extruded through a 100 nm polycarbonate filter 10-12 times. […] The liposome preparation was stored at 4° C. for as long as four weeks.
(§4) The lipid composition was 5 mol % DAG (Avanti 8008110), 40 mol % PS (Avanti 840035P), and 55 mol % PC (Avanti 850457) at a total lipid concentration of 15.2 mg/mL for the 4× liposome solution. The PC, DAG, and PS were dissolved in chloroform, combined, and dried in vacuo to a thin film. The lipids were hydrated to 20 mM in 50 mM MOPS pH 7.5, 100 mM NaCl, 5 mM MgCl2, and were freeze-thawed five times. The lipid suspension was extruded through a 100 nm polycarbonate filter eleven times. […] The liposome preparation was stored at 4° C. for as long as four weeks.
(§5) Human DGK-alpha-TVMV-His-pFBgate and human DGK-zeta-transcript variant-2-TVMV-His-pFBgate baculovirus samples were generated using the Bac-to-Bac baculovirus expression system (Invitrogen) according to the manufacturer's protocol. […] Baculovirus amplification was achieved using infected Sf9 cells at 1:1500 virus/cell ratios, and grown for 65 hours at 27° C. post-transfection.
(§6) The expression scale up for each protein was carried out in the Cellbag 50L WAVE-Bioreactor System 20/50 from GE Healthcare Bioscience. 12 L of 2×10^6 cells/mL Sf9 cells (Expression System, Davis, CA) grown in ESF921 insect medium (Expression System) were infected with virus stock at 1:200 virus/cell ratios, and grown for 66-68 hours at 27° C. post-infection.

Another assay has as its target T2, human DGKζ (Homo sapiens, UniProt Q13574).
T2 construct: TVMV protease cleavage site (C); Hexa-His (C); made in house; host or cells: Sf9 insect cells (baculovirus)
The assay is described as follows: In vitro DGK inhibition assay, DGKζ liposome (LIPGLO) assay. The format is biochemical. The settings on record: read-out: Enzyme Inhibition DGKzeta IC50. As to the method: as §1, §2, §3, §4, §5, §6

The structures appear in SMILES notation. Bounds are passed on as bounds.

T2 sequence (Q13574 with tags, fused parts or gaps isoform Q13574-4): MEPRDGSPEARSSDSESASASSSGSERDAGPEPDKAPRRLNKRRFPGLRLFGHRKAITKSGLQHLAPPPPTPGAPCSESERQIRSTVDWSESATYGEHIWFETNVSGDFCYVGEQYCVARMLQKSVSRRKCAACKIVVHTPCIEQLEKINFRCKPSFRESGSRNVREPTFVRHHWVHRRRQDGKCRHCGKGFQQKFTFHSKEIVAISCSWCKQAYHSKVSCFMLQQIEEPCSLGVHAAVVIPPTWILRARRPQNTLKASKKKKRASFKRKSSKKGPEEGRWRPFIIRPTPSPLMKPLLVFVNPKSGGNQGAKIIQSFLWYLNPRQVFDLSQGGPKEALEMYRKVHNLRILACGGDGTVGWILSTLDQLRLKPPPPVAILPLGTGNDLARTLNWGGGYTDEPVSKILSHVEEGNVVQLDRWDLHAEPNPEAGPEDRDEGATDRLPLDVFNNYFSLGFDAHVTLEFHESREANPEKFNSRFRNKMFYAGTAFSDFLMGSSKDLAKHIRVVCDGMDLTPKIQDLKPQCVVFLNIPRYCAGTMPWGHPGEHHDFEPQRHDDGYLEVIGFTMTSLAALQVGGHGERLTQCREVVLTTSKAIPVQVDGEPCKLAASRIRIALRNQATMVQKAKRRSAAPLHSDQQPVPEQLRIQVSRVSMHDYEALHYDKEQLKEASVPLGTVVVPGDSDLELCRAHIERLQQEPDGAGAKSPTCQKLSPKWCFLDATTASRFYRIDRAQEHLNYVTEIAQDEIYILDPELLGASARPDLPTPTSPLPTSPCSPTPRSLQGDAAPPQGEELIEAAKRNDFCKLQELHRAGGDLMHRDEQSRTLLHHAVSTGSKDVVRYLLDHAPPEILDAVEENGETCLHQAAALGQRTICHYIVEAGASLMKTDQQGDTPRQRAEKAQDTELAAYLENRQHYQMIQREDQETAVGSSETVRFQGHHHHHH
T1 sequence (P23743 with tags, fused parts or gaps): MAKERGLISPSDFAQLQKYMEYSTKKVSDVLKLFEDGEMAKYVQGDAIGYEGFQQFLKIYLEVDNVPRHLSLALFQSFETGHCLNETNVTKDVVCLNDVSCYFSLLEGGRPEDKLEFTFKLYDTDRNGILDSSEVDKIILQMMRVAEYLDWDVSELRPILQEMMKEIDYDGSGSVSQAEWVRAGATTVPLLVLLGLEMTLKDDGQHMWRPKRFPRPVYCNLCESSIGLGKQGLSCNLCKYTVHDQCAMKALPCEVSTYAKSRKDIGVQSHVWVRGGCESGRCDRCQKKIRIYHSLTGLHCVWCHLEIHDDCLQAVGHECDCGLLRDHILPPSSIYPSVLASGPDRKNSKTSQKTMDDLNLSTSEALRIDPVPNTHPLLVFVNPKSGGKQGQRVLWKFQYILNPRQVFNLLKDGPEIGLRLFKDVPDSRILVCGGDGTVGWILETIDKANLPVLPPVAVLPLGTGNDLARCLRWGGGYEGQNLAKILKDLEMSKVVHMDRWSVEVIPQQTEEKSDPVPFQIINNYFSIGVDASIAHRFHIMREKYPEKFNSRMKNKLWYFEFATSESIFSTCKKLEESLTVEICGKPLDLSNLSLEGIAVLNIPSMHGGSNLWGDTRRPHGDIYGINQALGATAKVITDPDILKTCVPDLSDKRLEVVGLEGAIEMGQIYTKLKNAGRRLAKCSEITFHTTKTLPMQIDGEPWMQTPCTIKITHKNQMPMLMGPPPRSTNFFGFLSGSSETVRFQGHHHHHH

As a reminder, the IC50 is the concentration needed to halve the response being measured. Consider `Cc1ccc(N(C)c2cc(=O)n(C)c3ccc(C#N)nc23)cc1` [Example 20, 5-methyl-8-(methyl(p-tolyl)amino)-6-oxo-5,6-dihydro-1,5-naphthyridine-2-carbonitrile], for which the figures for the IC50 on human DGKα and at human DGKζ were 0.73 µM and 36 µM, respectively. The corresponding values for `COCc1ccccc1N(CC1CC1)c1cc(=O)n(C)c2ccc(C#N)nc12` [Example 67, 8-((cyclopropylmethyl)(2-(methoxymethyl)phenyl)amino)-5-methyl-6-oxo-5,6-dihydro-1,5-naphthyridine-2-carbonitrile] are 4.5 µM and 21 µM. For `COc1ccc(N(C)c2cc(=O)n(C)c3ccc(C#N)nc23)cc1` [Example 24, 8-((4-methoxyphenyl)(methyl)amino)-5-methyl-6-oxo-5,6-dihydro-1,5-naphthyridine-2-carbonitrile], the IC50 at human DGKα is 0.65 µM; at human DGKζ, 3.2 µM. Taken in the same sequence, the figures for `CCCN(CC1CC1)c1nc(=O)n(C)c2ccc(Cl)nc12` [Example 31, 6-chloro-4-((cyclopropylmethyl)(propyl)amino)-1-methylpyrido[3,2-d]pyrimidin-2(1H)-one] were 1 µM and 32 µM. Regarding `Cn1c(=O)cc(N(CC2CC2)c2cccc(-c3cccc(O)c3)c2)c2nc(C#N)ccc21` [Example 99, 8-((cyclopropylmethyl)(3′-hydroxy-[1,1′-biphenyl]-3-yl)amino)-5-methyl-6-oxo-5,6-dihydro-1,5-naphthyridine-2-carbonitrile], the results for the IC50 on human DGKα and on human DGKζ were 1.8 µM and 31 µM, respectively. Take `CN(c1c(C#N)c(=O)n(C)c2ccc(Br)nc12)C1CCCCC1` [Example 7, 6-bromo-4-[cyclohexyl(methyl)amino]-1-methyl-2-oxo-1,2-dihydro-1,5-naphthyridine-3-carbonitrile]: the IC50 on human DGKζ was 21 µM. With `Cn1c(=O)cc(N(CC2CC2)c2ccc(OC(F)(F)F)cc2Cl)c2nc(C#N)ccc21` [Example 50, 8-((2-chloro-4-(trifluoromethoxy)phenyl)(cyclopropylmethyl)amino)-5-methyl-6-oxo-5,6-dihydro-1,5-naphthyridine-2-carbonitrile], the values for the concentration for half-maximal inhibition (IC50) at human DGKα and at human DGKζ were 4.8 µM and 2.5 µM, respectively. In the case of `C#CCn1c(=O)c(C#N)c(N(C)C2CCCCC2)c2nc(C#N)ccc21` [Example 17, 8-[cyclohexyl(methyl)amino]-6-oxo-5-(prop-2-yn-1-yl)-5,6-dihydro-1,5-naphthyridine-2,7-dicarbonitrile], the IC50 on human DGKα was 2 µM; at human DGKζ, 3.6 µM. As for `Cn1c(=O)cc(N(CC2CC2)c2ccc(-c3cccc(Cl)c3)cc2)c2nc(C#N)ccc21` [Example 76, 8-((3′-chloro-[1,1′-biphenyl]-4-yl)(cyclopropylmethyl)amino)-5-methyl-6-oxo-5,6-dihydro-1,5-naphthyridine-2-carbonitrile], the values for the concentration for half-maximal inhibition (IC50) at human DGKα and on human DGKζ were 6.2 µM and 2.1 µM, respectively. In the case of `Cn1c(=O)cc(N(CC2CC2)c2cccc(-c3ccccc3)c2)c2nc(C#N)ccc21` [Example 70, 8-([1,1′-biphenyl]-3-yl(cyclopropylmethyl)amino)-5-methyl-6-oxo-5,6-dihydro-1,5-naphthyridine-2-carbonitrile], the IC50 at human DGKα was determined as 0.17 µM; on human DGKζ, 27 µM. `CN(c1cc(=O)n(C)c2ccc(C#N)nc12)C1CCCCC1` [Example 19, 8-(cyclohexyl(methyl)amino)-5-methyl-6-oxo-5,6-dihydro-1,5-naphthyridine-2-carbonitrile]: the IC50 at human DGKζ was found to be 12 µM. For the compound `C#CCn1c(=O)c(C#N)c(N(C)C2CCCCC2)c2nc(Br)ccc21` [Example 16, 6-bromo-4-[cyclohexyl(methyl)amino]-2-oxo-1-(prop-2-yn-1-yl)-1,2-dihydro-1,5-naphthyridine-3-carbonitrile], the half-inhibitory concentration (IC50) at human DGKζ came to 12 µM. On to `Cc1ccc2c(n1)c(N(C)C1CCCCC1)c(C#N)c(=O)n2C` [Example 13, 4-[cyclohexyl(methyl)amino]-1,6-dimethyl-2-oxo-1,2-dihydro-1,5-naphthyridine-3-carbonitrile], for which the half-maximal inhibitory concentration (IC50) turned out to be 0.29 µM on human DGKα and 2.7 µM on human DGKζ. On to `COc1ccc(-c2cccc(N(C)c3nc(=O)n(C)c4ccc(C#N)nc34)c2)cc1` [Example 2, 4-((4′-methoxy-[1,1′-biphenyl]-3-yl)(methyl)amino)-1-methyl-2-oxo-1,2-dihydropyrido[3,2-d]pyrimidine-6-carbonitrile], for which the IC50 at human DGKα and on human DGKζ was more than 38 µM each time. As to `Cn1c(=O)cc(N(CC2CC2)c2ccc(F)cc2)c2nc(C#N)ccc21` [Example 35, 8-((cyclopropylmethyl)(4-fluorophenyl)amino)-5-methyl-6-oxo-5,6-dihydro-1,5-naphthyridine-2-carbonitrile], the IC50 at human DGKα came out at 0.22 µM; on human DGKζ, 3 µM.

As for `CC1CCC(N(C)c2c(C#N)c(=O)n(C)c3ccc(Br)nc23)CC1` (stereo not drawn) [Example 8, 6-bromo-1-methyl-4-(methyl(4-methylcyclohexyl)amino)-2-oxo-1,2-dihydro-1,5-naphthyridine-3-carbonitrile], at human DGKζ, the IC50 was found to be 31 µM. As to `CN(c1c(C#N)c(=O)n(C)c2ccc(C#N)nc12)C1CCCCC1` [Example 10, 8-[cyclohexyl(methyl)amino]-5-methyl-6-oxo-5,6-dihydro-1,5-naphthyridine-2,7-dicarbonitrile], the IC50 on human DGKζ was 4 µM.

Regarding `CC(C1CC1)N(C)c1c(C#N)c(=O)n(C)c2ccc(C#N)nc12` (stereo not drawn) [Example 11, 8-[(1-cyclopropylethyl)(methyl)amino]-5-methyl-6-oxo-5,6-dihydro-1,5-naphthyridine-2,7-dicarbonitrile], the concentration for half-maximal inhibition (IC50) at human DGKζ worked out at 7.3 µM. Consider `CC(C1CC1)N(C)c1c(C#N)c(=O)n(C)c2ccc(Br)nc12` (racemic) [Example 9, 6-bromo-4-((1-cyclopropylethyl)(methyl)amino)-1-methyl-2-oxo-1,2-dihydro-1,5-naphthyridine-3-carbonitrile], for which the IC50 at human DGKζ is 7.1 µM. As to `CC(C1CC1)N(C)c1c(C#N)c(=O)n(C)c2ccc(CC#N)nc12` (stereo not drawn) [Example 15, 6-(cyanomethyl)-4-[(1-cyclopropylethyl)(methyl)amino]-1-methyl-2-oxo-1,2-dihydro-1,5-naphthyridine-3-carbonitrile], at human DGKζ, the IC50 stood at 7.1 µM. Regarding `COc1ccc2c(n1)c(N(C)C1CCCCC1)c(C#N)c(=O)n2C` [Example 12, 4-[cyclohexyl(methyl)amino]-6-methoxy-1-methyl-2-oxo-1,2-dihydro-1,5-naphthyridine-3-carbonitrile], the IC50 on human DGKζ was determined as 84 µM. The same measure, in the same setting: for `CN(c1cccc(C#N)c1)c1cc(=O)n(C)c2ccc(C#N)nc12` [Example 21, 8-((3-cyanophenyl)(methyl)amino)-5-methyl-6-oxo-5,6-dihydro-1,5-naphthyridine-2-carbonitrile] the value was more than 125 µM; for `Cn1c(=O)cc(N(CC2CC2)c2ccc(C3CC3)cn2)c2nc(C#N)ccc21` [Example 46, 8-((cyclopropylmethyl)(5-cyclopropylpyridin-2-yl)amino)-5-methyl-6-oxo-5,6-dihydro-1,5-naphthyridine-2-carbonitrile], 0.99 µM; for `Cc1ccc2c(n1)c(N(C)C(C)C1CC1)c(C#N)c(=O)n2C` (stereo not drawn) [Example 14, 4-[(1-cyclopropylethyl)(methyl)amino]-1,6-dimethyl-2-oxo-1,2-dihydro-1,5-naphthyridine-3-carbonitrile], 29 µM.
